Literature values, collected in patent publication US12636262B2, “Process for the preparation of topical formulation” (Neuheit Pharma Technologies Pvt. Ltd, priority 2019, dated 2026).

Details: reported

CC(=O)Oc1cccc2c1C(=O)c1c(OC(C)=O)cc(C(=O)O)cc1C2=O [Diacerein, 4,5-diacetyloxy-9,10-dioxo-anthracene-2-carboxylic acid]
oral bioavailability: 40-60%
